Read-outs that look alike come from different tables or passages of the source.
Key:
FGFR4 = FGFR4 (Homo sapiens, UniProt P22455); assay: FGFR4 kinase inhibition (IC50); assay type: biochemical
[1] = Solubility in 5% DMSO and 95% of (20% HPBC in PBS); assay type: physicochemical
Description: The inventive compound 1 improves the FGFR4-selective inhibitory effect.

FGFR1 = FGFR1 (Homo sapiens, UniProt P11362); assay: FGFR1 kinase inhibition (IC50); assay type: biochemical
FGFR3 = FGFR3 (Homo sapiens, UniProt P22607); assay: FGFR3 kinase inhibition (IC50); assay type: biochemical
Protein binding = assay type: in vitro ADME
Mouse plasma stability = assay type: in vitro ADME; settings: value ± SE, read-out: Ms Plasma Stability t1/2 (SE)
MDCK permeability = assay type: in vitro ADME; settings: dog
FGFR2 = FGFR2 (Homo sapiens, UniProt P21802); assay: FGFR2 kinase inhibition (IC50); assay type: biochemical
[2] = Pharmacokinetics in mice (IP, IV, PO); assay type: in vivo; settings: for clearance / half-life / Vd / bioavailability / AUC(0-inf) / AUC(0-t) / Cmax / MRT inf / MRT last / Tmax: in vivo, mouse; for Vd: read-out: Vss
Experimental: FIG. 2A is the pharmacokinetic data of compound 1 administered by intraperitoneal injection (IP) into mice at 10 mg/kg, according to some embodiments of the present disclosure;
FIG. 2B is the pharmacokinetic data of compound 1 administered by intravenous injection (IV) into mice at 1 mg/kg and per os (PO) at 5 mg/kg, according to some embodiments of the present disclosure;

Hepatocyte = assay: Mouse hepatocyte clearance; assay type: in vitro ADME; settings: mouse hepatocytes; value ± SE
[3] = Pharmacokinetics in mice (IP, IV, PO); settings: mouse, in vivo, PO 100 mg/kg
[4] = read-out: FGFR4 inhibition (IC50 class)
[5] = read-out: FGFR1 Inhibition (IC50 class)
[6] = read-out: FGFR3 Inhibition (IC50 class)
[7] = read-out: FGFR2 Inhibition (IC50 class)

Sequence of FGFR4 (P22455 22-802): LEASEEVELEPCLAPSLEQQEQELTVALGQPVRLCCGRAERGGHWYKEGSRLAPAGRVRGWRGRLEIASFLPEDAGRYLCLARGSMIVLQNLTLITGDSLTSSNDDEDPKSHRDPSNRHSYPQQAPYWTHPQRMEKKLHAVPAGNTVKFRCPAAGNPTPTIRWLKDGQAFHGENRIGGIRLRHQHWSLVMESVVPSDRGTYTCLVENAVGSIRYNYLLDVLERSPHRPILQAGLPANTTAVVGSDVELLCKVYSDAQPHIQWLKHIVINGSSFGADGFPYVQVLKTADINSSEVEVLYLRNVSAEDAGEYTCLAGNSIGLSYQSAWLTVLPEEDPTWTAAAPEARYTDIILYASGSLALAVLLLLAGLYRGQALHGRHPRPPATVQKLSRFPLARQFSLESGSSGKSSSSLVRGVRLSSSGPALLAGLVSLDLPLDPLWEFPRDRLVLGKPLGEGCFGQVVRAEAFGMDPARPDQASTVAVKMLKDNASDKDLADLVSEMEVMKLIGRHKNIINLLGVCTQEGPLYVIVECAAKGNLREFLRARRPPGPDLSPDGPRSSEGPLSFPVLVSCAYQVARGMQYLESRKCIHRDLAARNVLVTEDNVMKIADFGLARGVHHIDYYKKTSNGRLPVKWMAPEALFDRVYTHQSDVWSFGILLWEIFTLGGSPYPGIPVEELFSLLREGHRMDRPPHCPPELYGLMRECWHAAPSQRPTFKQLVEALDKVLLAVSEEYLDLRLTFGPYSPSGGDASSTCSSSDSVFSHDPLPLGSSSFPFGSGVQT
Sequence of FGFR2 (P21802 22-821): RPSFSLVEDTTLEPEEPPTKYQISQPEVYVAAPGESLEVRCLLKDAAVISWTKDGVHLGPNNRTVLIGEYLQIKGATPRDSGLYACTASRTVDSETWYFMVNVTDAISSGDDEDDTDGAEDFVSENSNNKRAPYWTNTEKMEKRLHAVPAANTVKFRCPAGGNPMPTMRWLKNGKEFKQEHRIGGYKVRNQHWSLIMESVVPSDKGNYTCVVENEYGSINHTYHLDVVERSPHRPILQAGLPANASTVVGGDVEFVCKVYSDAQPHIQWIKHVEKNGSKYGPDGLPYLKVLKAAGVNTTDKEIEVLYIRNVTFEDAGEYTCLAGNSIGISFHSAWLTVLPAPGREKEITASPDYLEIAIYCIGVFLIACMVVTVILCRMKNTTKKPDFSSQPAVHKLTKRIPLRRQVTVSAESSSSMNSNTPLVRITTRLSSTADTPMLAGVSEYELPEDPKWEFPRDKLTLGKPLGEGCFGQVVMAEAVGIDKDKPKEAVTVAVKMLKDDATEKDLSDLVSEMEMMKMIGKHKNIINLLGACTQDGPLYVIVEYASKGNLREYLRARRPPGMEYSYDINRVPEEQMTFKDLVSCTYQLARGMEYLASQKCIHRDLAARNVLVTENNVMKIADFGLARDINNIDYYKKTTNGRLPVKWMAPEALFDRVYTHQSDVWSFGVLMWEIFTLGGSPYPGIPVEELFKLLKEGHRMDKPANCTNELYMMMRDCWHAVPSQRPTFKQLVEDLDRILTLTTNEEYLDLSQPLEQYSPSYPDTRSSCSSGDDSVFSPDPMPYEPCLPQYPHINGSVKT
Sequence of FGFR1 (P11362 22-822): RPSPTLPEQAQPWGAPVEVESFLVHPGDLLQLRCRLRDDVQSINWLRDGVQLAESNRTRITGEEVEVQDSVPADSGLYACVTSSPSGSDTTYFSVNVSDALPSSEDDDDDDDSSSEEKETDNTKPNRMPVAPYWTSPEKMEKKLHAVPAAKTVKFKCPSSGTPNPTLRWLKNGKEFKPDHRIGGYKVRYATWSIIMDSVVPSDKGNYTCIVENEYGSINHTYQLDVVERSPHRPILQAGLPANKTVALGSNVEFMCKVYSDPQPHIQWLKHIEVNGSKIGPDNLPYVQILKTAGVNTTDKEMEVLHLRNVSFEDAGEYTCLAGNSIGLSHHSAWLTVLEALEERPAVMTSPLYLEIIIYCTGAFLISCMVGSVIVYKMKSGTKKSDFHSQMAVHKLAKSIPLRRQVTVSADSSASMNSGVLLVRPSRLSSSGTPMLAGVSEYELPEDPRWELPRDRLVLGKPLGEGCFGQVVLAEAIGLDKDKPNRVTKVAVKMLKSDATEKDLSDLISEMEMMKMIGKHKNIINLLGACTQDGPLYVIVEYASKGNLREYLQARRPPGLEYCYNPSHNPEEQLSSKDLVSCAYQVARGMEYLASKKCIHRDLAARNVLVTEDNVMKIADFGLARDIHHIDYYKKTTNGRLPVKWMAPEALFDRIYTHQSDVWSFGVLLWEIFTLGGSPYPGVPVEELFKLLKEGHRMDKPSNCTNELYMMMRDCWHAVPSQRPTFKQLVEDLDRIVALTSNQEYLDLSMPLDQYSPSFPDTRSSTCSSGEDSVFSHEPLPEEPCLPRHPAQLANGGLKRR
Sequence of FGFR3 (P22607 23-806): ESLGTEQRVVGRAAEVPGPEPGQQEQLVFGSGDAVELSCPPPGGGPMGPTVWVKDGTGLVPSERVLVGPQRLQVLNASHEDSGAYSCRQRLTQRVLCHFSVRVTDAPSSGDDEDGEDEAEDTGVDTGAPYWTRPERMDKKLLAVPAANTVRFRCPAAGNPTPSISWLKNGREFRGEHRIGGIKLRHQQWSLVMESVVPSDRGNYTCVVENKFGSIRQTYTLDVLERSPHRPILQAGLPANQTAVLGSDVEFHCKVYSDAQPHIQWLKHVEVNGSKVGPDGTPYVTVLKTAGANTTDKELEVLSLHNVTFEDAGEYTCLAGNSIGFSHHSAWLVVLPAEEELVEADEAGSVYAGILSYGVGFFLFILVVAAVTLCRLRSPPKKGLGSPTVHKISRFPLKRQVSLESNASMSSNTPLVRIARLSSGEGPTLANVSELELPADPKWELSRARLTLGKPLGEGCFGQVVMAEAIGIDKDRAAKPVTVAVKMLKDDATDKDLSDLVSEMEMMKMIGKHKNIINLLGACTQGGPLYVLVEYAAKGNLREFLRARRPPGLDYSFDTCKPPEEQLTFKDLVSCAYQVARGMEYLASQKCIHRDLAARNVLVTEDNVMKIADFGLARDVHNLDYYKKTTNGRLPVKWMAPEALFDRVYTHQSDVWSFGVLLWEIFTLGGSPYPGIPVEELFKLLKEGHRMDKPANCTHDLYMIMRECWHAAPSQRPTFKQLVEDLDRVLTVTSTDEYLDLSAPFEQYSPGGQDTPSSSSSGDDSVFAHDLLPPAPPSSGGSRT

## C=CC(=O)N[C@H]1CCC[C@H]1Nc1cc(-c2cccnc2Nc2c(Cl)c(OC)cc(OC)c2Cl)ncn1 (single isomer, unassigned) [Compound 16, N-[cis-2-[[6-[2-(2,6-dichloro-3,5-dimethoxy-anilino)-3-pyridyl]pyrimidin-4-yl]amino]cyclopentyl]prop-2-enamide]
FGFR4; [4]
  IC50: 100 to 1000 nM

## C=CC(=O)N[C@H]1COC[C@H]1Nc1cc(-c2cccnc2Nc2c(Cl)c(OC)cc(OC)c2Cl)ncn1 [Compound 1]
[1]
  solubility: much-improved solubility
FGFR1; [5]
  IC50: ≥ 1000 nM
FGFR1; read-out: IC50 towards FGFR1
  IC50: 1280 nM
FGFR3; [6]
  IC50: ≥ 1000 nM
FGFR3; read-out: IC50 towards FGFR3
  IC50: 4440 nM
FGFR4; [4]
  IC50: 10 to 100 nM
FGFR4; read-out: IC50 towards FGFR4
  IC50: 20 nM
Protein binding
  fraction unbound: 0.08
Mouse plasma stability
  half-life: 19.1 ± 5.78 h
MDCK permeability
  Papp A→B: 25.8 ×10⁻⁶ cm/s
FGFR2; [7]
  IC50: ≥ 1000 nM
FGFR2; read-out: IC50 towards FGFR2
  IC50: 1870 nM
[2]; intravenous, Table 2 summary
  clearance: 26.7 mL/min/kg
  half-life: 0.52 h
  Vd: 0.88 L/kg
[2]; oral, Table 2 summary
  bioavailability: 20.9%
[2]; mice, IP 10 mg/kg
  AUC(0-inf): 9610 ng·h/mL
  AUC(0-t): 9610 ng·h/mL
  Cmax: 14900 ng/mL
  MRT inf: 0.67 h
  MRT last: 0.67 h
  Tmax: 0.25 h
  half-life: 2.81 h
[2]; mice, IV 1 mg/kg
  AUC(0-inf): 621 ng·h/mL
  AUC(0-t): 618 ng·h/mL
  Cmax: 849 ng/mL
  MRT inf: 0.537 h
  MRT last: 0.515 h
  Tmax: 0.083 h
  clearance: 27.2 mL/min/kg
  half-life: 0.522 h
  Vd: 0.876 L/kg
[2]; mice, PO 5 mg/kg
  AUC(0-inf): 648 ng·h/mL
  AUC(0-t): 465 ng·h/mL
  Cmax: 119 ng/mL
  MRT inf: 4.02 h
  MRT last: 3.42 h
  Tmax: 3.17 h
  bioavailability: 20.9%
  half-life: 2.73 h
Hepatocyte
  Hepatocyte Clin Ms (SE): 43.6 ± 1.3 µL/min/1e6 cells

## C=CC(=O)NC1CC1Nc1cc(-c2cccnc2Nc2c(Cl)c(OC)cc(OC)c2Cl)ncn1 (centres unmarked) [Compound 2]
FGFR1; [5]
  IC50: 10 to 100 nM
FGFR3; [6]
  IC50: 100 to 1000 nM
FGFR4; [4]
  IC50: ≤ 10 nM
FGFR2; [7]
  IC50: 100 to 1000 nM

## C=CC(=O)N[C@H]1CC[C@H]1Nc1cc(-c2cccnc2Nc2c(Cl)c(OC)cc(OC)c2Cl)ncn1 [Compound 3]
FGFR4; [4]
  IC50: 100 to 1000 nM

## C=CC(=O)N[C@H]1CCOC[C@H]1Nc1cc(-c2cccnc2Nc2c(Cl)c(OC)cc(OC)c2Cl)ncn1 [Compound 4]
FGFR4; [4]
  IC50: 10 to 100 nM

## C=CC(=O)Nc1cccc(C)c1Nc1cc(-c2cccnc2Nc2c(Cl)c(OC)cc(OC)c2Cl)ncn1 [Compound 5, N-(2-((6-(2-((2,6-dichloro-3,5-dimethoxyphenyl)amino)pyridin-3-yl)pyrimidin-4-yl)amino)-3-methylphenyl)acrylamide, reference compound]
[1]
  solubility: poor solubility
[3]
  AUC(0-t): 1450 ng·h/mL
  Tmax: 6.67 h
  bioavailability: 8.09%
Mouse plasma stability
  half-life: 3.69 ± 0.928 h
MDCK permeability
  Papp A→B: 11.4 ×10⁻⁶ cm/s
[2]; intravenous, Table 2 summary
  clearance: 14 mL/min/kg
  half-life: 15 h
[2]; oral, Table 2 summary
  bioavailability: 8%
[2]; mice, IP 10 mg/kg
  T1/2: 1.23 h
  AUC(0-inf): 1280 ng·h/mL
  AUC(0-t): 1270 ng·h/mL
  Cmax: 865 ng/mL
  MRT inf: 1.66 h
  MRT last: 1.57 h
  Tmax: 0.25 h
[2]; mice, IV 5 mg/kg
  AUC(0-inf): 1240 ng·h/mL
  AUC(0-t): 896 ng·h/mL
  Cmax: 470 ng/mL
  MRT inf: 18.5 h
  MRT last: 7.71 h
  Tmax: 0.083 h
  clearance: 13.9 mL/min/kg
  half-life: 15.1 h
  Vd: 15.3 L/kg
[2]; mice, PO 100 mg/kg
  Cmax: 180 ng/mL
  MRT last: 6.1 h
Hepatocyte
  Hepatocyte Clin Ms (SE): 41.7 ± 1.73 µL/min/1e6 cells

## C=CC(=O)Nc1cc(OC2CN(C)C2)ccc1Nc1cc(-c2cccnc2Nc2c(Cl)c(OC)cc(OC)c2Cl)ncn1 [Compound 6, N-[2-[[6-[2-(2,6-dichloro-3,5-dimethoxy-anilino)-3-pyridyl]pyrimidin-4-yl]amino]-5-(1-methylazetidin-3-yl)oxy-phenyl]prop-2-enamide]
FGFR1; [5]
  IC50: 100 to 1000 nM
FGFR3; [6]
  IC50: ≥ 1000 nM
FGFR4; [4]
  IC50: ≤ 10 nM
FGFR2; [7]
  IC50: 100 to 1000 nM

## C=CC(=O)Nc1cc(OCC2CN(C)C2)ccc1Nc1cc(-c2cccnc2Nc2c(Cl)c(OC)cc(OC)c2Cl)ncn1 [Compound 7, N-[2-[[6-[2-(2,6-dichloro-3,5-dimethoxy-anilino)-3-pyridyl]pyrimidin-4-yl]amino]-5-[(1-methylazetidin-3-yl)methoxy]phenyl]prop-2-enamide]
FGFR1; [5]
  IC50: 100 to 1000 nM
FGFR3; [6]
  IC50: ≥ 1000 nM
FGFR4; [4]
  IC50: ≤ 10 nM
FGFR2; [7]
  IC50: 100 to 1000 nM

## C=CC(=O)Nc1cc(OC2CCN(C)CC2)ccc1Nc1cc(-c2cccnc2Nc2c(Cl)c(OC)cc(OC)c2Cl)ncn1 [Compound 8, N-[2-[[6-[2-(2,6-dichloro-3,5-dimethoxy-anilino)-3-pyridyl]pyrimidin-4-yl]amino]-5-[(1-methyl-4-piperidyl)oxy]phenyl]prop-2-enamide]
FGFR1; [5]
  IC50: ≥ 1000 nM
FGFR3; [6]
  IC50: ≥ 1000 nM
FGFR4; [4]
  IC50: ≤ 10 nM
FGFR2; [7]
  IC50: 100 to 1000 nM

## C=CC(=O)Nc1cc(OC2CCN(C)C2)ccc1Nc1cc(-c2cccnc2Nc2c(Cl)c(OC)cc(OC)c2Cl)ncn1 (centres unmarked) [Compound 9, N-[2-[[6-[2-(2,6-dichloro-3,5-dimethoxy-anilino)-3-pyridyl]pyrimidin-4-yl]amino]-5-(1-methylpyrrolidin-3-yl)oxy-phenyl]prop-2-enamide]
FGFR1; [5]
  IC50: 100 to 1000 nM
FGFR3; [6]
  IC50: ≥ 1000 nM
FGFR4; [4]
  IC50: ≤ 10 nM
FGFR2; [7]
  IC50: 100 to 1000 nM

## C=CC(=O)Nc1cc(OC2CCOC2)ccc1Nc1cc(-c2cccnc2Nc2c(Cl)c(OC)cc(OC)c2Cl)ncn1 (centres unmarked) [Compound 10, N-[2-[[6-[2-(2,6-dichloro-3,5-dimethoxy-anilino)-3-pyridyl]pyrimidin-4-yl]amino]-5-tetrahydrofuran-3-yloxy-phenyl]prop-2-enamide]
FGFR1; [5]
  IC50: ≥ 1000 nM
FGFR3; [6]
  IC50: ≥ 1000 nM
FGFR4; [4]
  IC50: ≤ 10 nM
FGFR2; [7]
  IC50: ≥ 1000 nM

## C=CC(=O)Nc1cc(OC2COC2)ccc1Nc1cc(-c2cccnc2Nc2c(Cl)c(OC)cc(OC)c2Cl)ncn1 [Compound 11, N-[2-[[6-[2-(2,6-dichloro-3,5-dimethoxy-anilino)-3-pyridyl]pyrimidin-4-yl]amino]-5-(oxetan-3-yloxy)phenyl]prop-2-enamide]
FGFR1; [5]
  IC50: ≥ 1000 nM
FGFR3; [6]
  IC50: ≥ 1000 nM
FGFR4; [4]
  IC50: ≤ 10 nM
FGFR2; [7]
  IC50: ≥ 1000 nM

## C=CC(=O)Nc1cc(OCCN2CCCC2)ccc1Nc1cc(-c2cccnc2Nc2c(Cl)c(OC)cc(OC)c2Cl)ncn1 [Compound 12, N-[2-[[6-[2-(2,6-dichloro-3,5-dimethoxy-anilino)-3-pyridyl]pyrimidin-4-yl]amino]-5-(2-pyrrolidin-1-ylethoxy)phenyl]prop-2-enamide]
FGFR1; [5]
  IC50: 100 to 1000 nM
FGFR3; [6]
  IC50: ≥ 1000 nM
FGFR4; [4]
  IC50: ≤ 10 nM
FGFR2; [7]
  IC50: 100 to 1000 nM

## C=CC(=O)Nc1ncn(C)c1Nc1cc(-c2cccnc2Nc2c(Cl)c(OC)cc(OC)c2Cl)ncn1 [Compound 13, N-[5-[[6-[2-(2,6-dichloro-3,5-dimethoxy-anilino)-3-pyridyl]pyrimidin-4-yl]amino]-1-methyl-imidazol-4-yl]prop-2-enamide]
FGFR4; [4]
  IC50: ≥ 1000 nM

## C=CC(=O)Nc1cc(OCCN(C)C)ccc1Nc1cc(-c2cccnc2Nc2c(Cl)c(OC)cc(OC)c2Cl)ncn1 [Compound 14]
FGFR1; [5]
  IC50: ≥ 1000 nM
FGFR3; [6]
  IC50: ≥ 1000 nM
FGFR4; [4]
  IC50: ≤ 10 nM
FGFR2; [7]
  IC50: ≥ 1000 nM

## C=CC(=O)Nc1cc(OCCN(CC)CC)ccc1Nc1cc(-c2cccnc2Nc2c(Cl)c(OC)cc(OC)c2Cl)ncn1 [Compound 15]
FGFR1; [5]
  IC50: ≥ 1000 nM
FGFR3; [6]
  IC50: ≥ 1000 nM
FGFR4; [4]
  IC50: ≤ 10 nM
FGFR2; [7]
  IC50: ≥ 1000 nM
